Experiment [1] deals with IL-17 production by CD4 T cells. As to the kind of experiment: Human Th17 assay (IL-17 production by CD4 T cells). The note with it: CD4+ T cells from healthy donors, Th17 differentiation, 3 days. In kind it is cell-based. The text has this: The human Th17 assay tests the effect of RORγt modulatory compounds on IL-17 production by CD4 T cells under conditions which favor Th17 differentiation. Total CD4^+ T cells were isolated from the peripheral blood mononuclear cells (PBMC) of healthy donors using a CD4^+ T cell isolation kit II, following the manufacturer's instructions (Miltenyi Biotec). Cells were resuspended in a medium of RPMI-1640 supplemented with 10% fetal bovine serum, penicillin, streptomycin, […], and β-mercaptoethanol and were added to 96-well plates at 1.5x10^5 per 100 µL per well. 50 µL of compound at titrated concentrations in DMSO were added into each well at final DMSO concentration at 0.2%. Cells were incubated for 1 hour, then 50 µL of Th17 cell differentiation medium was added to each well. The final concentrations of antibodies and cytokines (R&D Systems) in differentiation medium were: 3x10^6/mL anti-CD3/CD28 beads (prepared using human T cell activation/expansion kit, Miltenyi Biotec), 10 µg/mL anti-IL4, 10 µg/mL anti-IFNγ, 10 ng/mL IL1β, 10 ng/mL IL23, 50 ng/mL IL6, 3 ng/mL TGFβ and 20 U/mL IL2. Cells were cultured at 37 °C and 5% CO2 for 3 days. Supernatants were collected and the accumulated IL-17 in culture was measured by using MULTI-SPOT® Cytokine Plate following manufacture's instruction (Meso Scale Discovery). The plate was read using Sector Imager 6000, and IL-17 concentration was extrapolated from the standard curve. The IC50s were determined by GraphPad.

In experiment [2] the target is T1, human RORγt ligand binding domain (RORγt LBD) (Homo sapiens, UniProt P51449).
T1 construct: made in house; host or cells: E. coli (pHIS1, modified pET vector)
T1 sequence (P51449 258-518): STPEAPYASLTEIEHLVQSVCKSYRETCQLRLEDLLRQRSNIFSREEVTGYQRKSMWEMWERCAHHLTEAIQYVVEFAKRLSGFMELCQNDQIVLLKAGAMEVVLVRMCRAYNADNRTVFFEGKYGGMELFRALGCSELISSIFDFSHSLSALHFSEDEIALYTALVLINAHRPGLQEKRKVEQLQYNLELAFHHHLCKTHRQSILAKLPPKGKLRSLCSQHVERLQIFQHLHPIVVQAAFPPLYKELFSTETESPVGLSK
Put plainly: RORγt ThermoFluor assay (thermal shift binding affinity). The note with it: 0.065 mg/mL RORγt, pH 7.0; estimated from thermal shift. The procedure: This approach is applicable to a wide variety of systems, and rigorous in theoretical interpretation through quantitation of equilibrium binding constants (KD).
The shift in the melting point described as a ΔTm is proportional to the concentration and affinity of the ligand. The compound potency may be compared as a rank order of either ΔTm values at a single compound concentration or in terms of KD values, estimated from concentration response curves.
ThermoFluor® experiments were carried out using instruments owned by Janssen Research and Discovery, L.L.C. through its acquisition of 3-Dimensional Pharmaceuticals, Inc. 1,8-ANS (Invitrogen) was used as a fluorescent dye. Protein and compound solutions are dispensed into black 384-well polypropylene PCR microplates (Abgene) and overlayed with silicone oil (1 µL, Fluka, type DC 200) to prevent evaporation.
Bar-coded assay plates are robotically loaded onto a thermostatically controlled PCR-type thermal block and then heated at a typical ramp-rate of 1 °C/min for all experiments. Fluorescence was measured by continuous illumination with UV light (Hamamatsu LC6) supplied via fiber optic and filtered through a band-pass filter (380-400 nm; >6 OD cutoff). Fluorescence emission of the entire 384-well plate was detected by measuring light intensity using a CCD camera (Sensys, Roper Scientific) filtered to detect 500 ± 25 nm, resulting in simultaneous and independent readings of all 384 wells. Images were collected at each temperature, and the sum of the pixel intensity in a given area of the assay plate was recorded versus temperature. Reference wells contained RORγt without compounds, and the assay conditions were as follows: • 0.065 mg/mL RORyt • 60 µM 1,8-ANS • 100 mM Hepes, pH 7.0 • 10 mM NaCl • 2.5 mM GSH • 0.002% Tween-20
Project compounds were arranged in a pre-dosed mother plate (Greiner Bio-one) wherein compounds are serially diluted in 100% DMSO by 1:2 from a high concentration of 10 mM over 12 columns within a series (column 12 is a reference well containing DMSO, no compound). The compounds were robotically dispensed directly into assay plates (1x = 46 nL) using a Hummingbird capillary liquid handling instrument (Digilab). Following compound dispense, protein and dye in buffer was added to achieve the final assay volume of 3 µL, followed by 1 µL of silicone oil.

A further experiment concerns the target T2, human RORγt LBD (Homo sapiens, UniProt P51449).
T2 construct: expressed in transfected cells
T2 sequence (P51449 258-518): T1 sequence (P51449 258-518)
Put plainly: RORγt reporter assay (GAL4-RORγt LBD luciferase in HEK293T cells). The note with it: for IC50: 24 hours compound treatment; for inhibition at 6 µM: HEK-293T. The class given is cell-based. The text has this: A reporter assay was used to test functional activity of RORγt modulatory compounds on transcriptional activation driven by the RORγt LBD. Cells used in the assay were co-transfected with two constructs. The first construct, pBIND-RORγt LBD, contained the wild type human RORγt LBD fused to the DNA binding domain of the GAL4 protein. The second construct, pGL4.31 (Promega Cat no. C935A), contained multiple GAL4 responsive DNA elements upstream of firefly luciferase. […] The mutant construct was called pBIND-RORγt-AF2.
The pBIND vector contains the GAL4 DNA Binding Domain (GAL4 DBD) and the renilla luciferase gene under control of the SV40 promoter. Renilla luciferase expression serves as a control for transfection efficiency and cell viability.
The reporter assay was performed by transiently transfecting HEK293T cells with 5 µg of pBIND-RORγt LBD or pBIND-RORγt LBD-AF2 and 5 µg pGL4.31 (Promega Cat no. C935A) using Fugene 6 (Invitrogen Cat no. E2691) at a 1:6 ratio of DNA: Fugene 6 in a T-75 flask in which cells were at least 80% confluent. Twenty four hours after bulk transfection, cells were plated into 96-well plates at 50,000 cells/well in phenol-red free DMEM containing 5% Lipid Reduced FCS and Pen/Strep. Six hours after plating, cells were treated with compounds for 24 hours. Media was removed and cells were lysed with 50 µL 1x Glo Lysis Buffer (Promega). Dual Glo Luciferase Reagent (50 µL/well) was then added and firefly luciferase luminescence was read on an Envision after a ten minute incubation. Finally, Stop and Glo reagent (50 µL/well) was added and renilla luciferase luminescence was read on an Envision after a ten minute incubation. To calculate the effect of compounds on RORγt activity, the ratio of firefly to renilla luciferase was determined and plotted against compound concentration. Agonist compounds increase RORγt-driven luciferase expression, and antagonist or inverse agonist compounds decrease luciferase expression.
Background: In a reporter assay the amount or activity of a reporter protein is the signal.

Among the data in patent publication EP3083561B1, “HETEROARYL LINKED QUINOLINYL MODULATORS OF RORYT” (Janssen Pharmaceutica NV, priority 2013, dated 2015) are IC50, Kd and inhibition values, retold here.

As a reminder, the IC50 is the midpoint of a concentration-inhibition curve. A lower IC50 goes with greater potency. The term Kd denotes the free concentration of one partner at which half of the binding sites on the other are occupied at equilibrium, for simple one-to-one binding. By inhibition is commonly meant the change of the read-out against control, counted positive when it falls.

Molecules are shown by their SMILES. Where a name gives a salt, the structure may show the parent alone. Some results are limits rather than exact numbers.

With `Cn1cncc1C(O)(c1ccc(C(F)(F)F)nc1)c1ccc2nc(N3CCCC3)c(Oc3ccc(C#N)cc3)c(Cl)c2c1` (racemic) [Example 2a, 4-((4-Chloro-6-(hydroxy(1-methyl-1H-imidazol-5-yl)(6-(trifluoromethyl)pyridin-3-yl)methyl)-2-(pyrrolidin-1-yl)quinolin-3-yl)oxy)benzonitrile], in experiment [1] (Homo sapiens, CD4+ T, 72 h), half-maximal inhibition (IC50) was put at 88 nM.
As for `CCN(CC)c1nc2ccc(C(O)(c3ccccn3)c3cncn3C)cc2c(C#N)c1Oc1ccccc1` (single isomer, unassigned) [Example 5c], the Kd in experiment [2] was greater than 63000 nM. Also, the IC50 at human RORγt LBD came to 270 nM; in experiment [1] (Homo sapiens, 72 h), 150 nM.
As for `Cn1cncc1C(O)(c1ccc(Cl)cc1)c1ccc2nc(N3CCC3=O)c(Oc3ccc(C#N)cc3)c(Cl)c2c1` (stereo not shown) [Example 1, 4-((4-chloro-6-((4-chlorophenyl)(hydroxy)(1-methyl-1H-imidazol-5-yl)methyl)-2-(2-oxoazetidin-1-yl)quinofin-3-yl)oxy)benzonitrile · TFA], the Kd in experiment [2] was 58 nM. Besides, at human RORγt LBD, the IC50 was 180 nM and the inhibition at 6 µM stood at 101%. In addition, inhibition in experiment [1] (Homo sapiens, 72 h) was half-maximal at 300 nM (IC50).
As for `Cn1cncc1C(O)(c1ccc(C(F)(F)F)nc1)c1ccc2nc(N3CCCC3)c(Oc3ccc(C#N)cc3)c(Cl)c2c1` (stereo not shown) [Example 2b], the IC50 in experiment [1] was 320 nM.
`Cn1cncc1C(O)(c1ccc(C(F)(F)F)nc1)c1ccc2nc(N3CCCC3)c(Oc3ccc(C#N)cc3)c(Cl)c2c1` (stereo not shown) [Example 2c] returned an IC50 in experiment [1] of 100 nM.
`CCN(CC)c1nc2ccc(C(O)(c3ccccn3)c3cncn3C)cc2c(Cl)c1Oc1ccccc1` (stereo not shown) [Example 3b]: the Kd in experiment [2] is 140 nM. On human RORγt LBD, 200 nM corresponded to half-maximal inhibition (IC50) and the inhibition at 6 µM was 101%. This compound registered a concentration for half-maximal inhibition (IC50) in experiment [1] (Homo sapiens, 72 h) of 180 nM.
Take `CCN(CC)c1nc2ccc(C(O)(c3ccccn3)c3cncn3C)cc2c(Cl)c1Oc1ccccc1` (stereo not shown) [Example 3c]: the Kd in experiment [2] is 460 nM. Moreover, the IC50 against human RORγt LBD was determined as 1100 nM.
`CCN(CC)c1nc2ccc(C(O)(c3ccccn3)c3cncn3C)cc2c(C#N)c1Oc1ccccc1` (stereo not shown) [Example 5b]: on human RORγt LBD, 870 nM corresponded to half-maximal inhibition (IC50) and the inhibition at 6 µM was 102%.
For `CC(C)OC1CN(c2nc3ccc(C(O)(c4ccc(C(F)(F)F)nc4)c4cncn4C)cc3c(Cl)c2Oc2ccc(Cl)cc2)C1` (stereo not shown) [Example 6, (4-Chloro-3-(4-chlorophenoxy)-2-(3-isopropoxyazetidin-1-yl)quinolin-6-yl)(1-methyl-1H-imidazol-5-yl)(6-(trifluoromethyl)pyridin-3-yl)methanol], in experiment [2], the equilibrium dissociation constant (Kd) was 11000 nM. In addition, on human RORγt LBD, the IC50 was greater than 6000 nM and the inhibition at 6 µM was 41%.
As for `CC(C)(C)OC(=O)N(c1ccccc1)c1c(Cl)nc2ccc(C(O)(c3cccnc3)c3cccc(Cl)c3)cc2c1Cl` (stereo not shown) [Example 7, tert-Butyl (2,4-dichloro-6-((3-chlorophenyl)(hydroxy)(pyridin-3-yl)methyl)quinolin-3-yl)(phenyl)carbamate], the inhibition at 6 µM against human RORγt LBD is 72%.
